Source: patent US20150148320A1, “COSMETIC USE OF SALICYLIC ACID DERIVATIVES” (Avon Products, Inc., priority 2013, published 2015)

What was measured:
[1] = molecular target: T1, recombinant human (rh) KLK5 (Homo sapiens, UniProt Q9Y337); test: Enzymatic activity of Kallikrein 5 (KLK5), fluorogenic peptide substrate Boc-V-P-R-AMC; assay type: biochemical
T1 construct: purchased R&D Systems 1108-SE
T1 sequence (Q9Y337 23-293): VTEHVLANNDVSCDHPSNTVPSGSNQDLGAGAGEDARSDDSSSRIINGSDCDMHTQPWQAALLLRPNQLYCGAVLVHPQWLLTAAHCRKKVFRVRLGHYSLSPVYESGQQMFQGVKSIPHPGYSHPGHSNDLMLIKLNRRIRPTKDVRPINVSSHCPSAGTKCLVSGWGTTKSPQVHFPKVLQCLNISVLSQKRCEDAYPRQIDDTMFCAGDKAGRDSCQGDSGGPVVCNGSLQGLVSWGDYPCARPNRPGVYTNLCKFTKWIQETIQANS
Protocol: Compound 1 was assayed for enzymatic activity of Kallikrein 5 (KLK5) as follows, and its activity compared to that of salicylic acid. The KLK5 activity of compound 1 was calculated as a percentage of KLK5 activity relative to salicylic acid. The KLK5 activity of compound 1 was about 165% relative to the KLK5 activity of salicylic acid.
In the stratum corneum, skin's outermost layer, cell-to-cell cohesion depends primarily on proteins known as the corneodesmosomes. During skin remodeling and renewal dead cells are shed from the skin surface by the action of native proteases that break down the corneodesmosomes. […] Hypothetically, up-regulation of the activities of these proteases using different active candidates could be utilized to increase the rate of shedding of dead skin, thus providing a natural means for skin exfoliation. To this end, the enzymatic activity of a member of the KLK family, recombinant human (rh) KLK5, was monitored following pre-incubation with actives and measuring the rate of peptide bond cleavage of a synthetic substrate.
Enzymatic activity of KLK5 was measured by incubating recombinant human (rh) KLK5 protease (R&D Systems, Cat No. 1108-SE) with a specific fluorogenic peptide substrate Boc-V-P-R-AMC (R& D Systems, Cat No. ES011). The substrate is conjugated to a quenched fluorescent group. […] Increase in fluorescence reading indicates an increase in rhKLK5 activity. […] After 60 seconds of incubation, fluorescence was measured at 340 nm (Excitation wavelength) and 485 nm (Emission wavelength) every 1 minute for 7 minutes. Rate (kinetics) of enzyme activity was calculated as follows: Rate of enzyme activity=Change of fluorescent reading (after background correction) Change of reaction time (min) Percent change of activity due to a test compound was calculated by comparing rate of enzyme activity in the presence of the test compound to that of a control without the test compound and statistical significance was calculated using a t-test. […]

[2] = Skin PAMPA parallel artificial membrane penetration assay; assay type: in vitro ADME; settings: 50 μM, donor pH 4.25, acceptor pH 7.4, two hours incubation
Protocol: Several salicylic acid derivatives were assessed for their ability to penetrate skin. Each of the compounds was formulated in an aqueous buffer, with a final pH of 4.25 at a concentration of 50 μM. The skin permeability of the compounds was measured using a high throughput transdermal permeability model, the parallel artificial membrane penetration assay (Skin PAMPA™), which uses a skin mimetic artificial membrane that simulates the barrier properties of the strateum corneum.
Briefly, the Skin PAMPA™ assay is a sandwich assay that utilizes two 96-well plate assemblies, one of which acts as the acceptor chambers (comprising a buffer), and one of which acts as the donor chambers (comprising a buffer and the compound to be tested). […] After an incubation period, the donor and acceptor chambers are analyzed for the amount of compound present.
In the current experiments, the acceptor chamber included an acceptor solution made from Prisma™ HT buffer solution (Pion, Inc.) that was adjusted to a pH of 7.4±0.05 using 1.0 M NaOH, and the donor chamber included a donor solution made from Prisma™ HT buffer solution (Pion, Inc.) that was adjusted to a pH of 4.25±0.05 using 1.0 M NaOH. […] Effective permeability was then calculated by the same method as Sinko et al., Eur. J. Pharm. […]

stimulation of KLK5 (in words) ([1]; rhKLK5): very potent stimulator of KLK5
KLK5 activity as a percentage relative to the KLK5 activity of salicylic acid ([1]; rhKLK5, rate of enzyme activity relative to salicylic acid): about 165%
KLK5 activity as compared to salicylic acid (in words) ([1]; rhKLK5, FIG. 1 asterisk): superior KLK5 activity
skin permeability as compared to salicylic acid (in words) [2]: higher permeability
SMILES: CCOC(=O)c1cc2c(c(C(=O)OCC)c1O)CCCC2 [Compound 1]
